Data reported in US8940911B2, “Squarylated lactones inhibitors for bacterial biofilm formation” (Syracuse University, priority 2012, dated 2015).

Columns and labels:
E. coli RP437 [1] = assay: Static biofilm inhibition assay (crystal violet, 96-well plate); format: cell-based, Escherichia coli
Excerpt: A primary objective was to test the ability of SHLs to inhibit biofilm formation against E. coli RP437. […] Viable controls were required that would allow us to measure and compare the activity of SHLs against known biofilm inhibitors and naturally occurring AI-1 signal molecules. […] The activity of this class of molecule is presumably similar or even marginally higher than that of brominated furanone (BF8 48) (56%).
For the present invention, the E. coli RP437 biofilms were allowed to develop in a 96-well plate in the absence or presence of SHLs. After 24 hours, the planktonic bacteria and remaining media were removed and the crystal violet was introduced in the wells. The bacterial biofilm being formed at the air/liquid interface on the inside wall of the well is stained readily by crystal violet. After removing the excess crystal violet and repeatedly washing the wells with water, followed by ethanol solubilization of the dye, allows quantification of the amount of biofilm by spectrophotometry (OD600). […] We believe that the observed biofilm inhibition activity cannot be directly attributed to any predominant structural feature inherent in the SHLs. Rather, the small deviations in the structures of the SHLs and their effect on biofilm formation could be a result of the nature of non-covalent forces that arise during SHLs presumed binding within the receptor active site.
An overnight culture of E. coli RP437 grown in LB media (OD600 of 1.0) containing streptomycin (10 μg/mL) was subsequently sub-cultured to an OD600 of 0.04 (1:100 dilution with LB media). To each well in the solvent resistant polypropylene or polystyrene-based 96-well microtiter plates were added 200 μL of the sub-cultured bacteria respectively. To each of the wells containing the bacterial cultures varying concentrations of the synthetic molecules was added and the contents in each well were gently mixed. Control wells comprised of untreated bacterial culture (four replicates) and the LB media (four replicates). The microtiter plates were then covered and wrapped in a Saran wrap and allowed to incubate at 37° C. for 24 hours without shaking. After that time, the microbial medium in each well was discarded and the remaining biofilm that was formed during incubation was stained with 225 μL of a 0.1% crystal violet solution and allowed to incubate at room temperature for 30 minutes. After the incubation period, the crystal violet was discarded and the wells were gently washed twice with water (230-250 μL) and allowed to air dry for 15-20 minutes. For the purpose of solubilizing the remaining crystal violet that had stained the biofilm present in the interior of the 96-well plates, a 250 μL solution of 95% ethanol was used. After the addition of 95% ethanol, the contents of each well were mixed thoroughly and allowed to sit for 15-20 minutes. Finally, the biofilm formed was quantified by transferring 100 μL of the ethanol solution into a fresh polystyrene microtiter dish that was subsequently read by an absorbance plate reader (A600). After elimination of background absorbance, the percentage inhibition was calculated by dividing the amount of absorbed crystal violet in wells that contained the synthetic compound by the amount of absorbed crystal violet in wells that contained bacteria only (control). Biofilm assays for each synthetic compound were repeated two to three times and each concentration considered for inhibition studies were tested over four replicates.

E. coli RP437 [2] = assay: Growth studies (OD600) of planktonic E. coli; format: cell-based, Escherichia coli; details: for toxicity / growth inhibition of E. coli (in words): OD600 over 24 h, 1-300 μM as stated in the sentence
Description: The toxicity of the SHLs and BF8 at a range of concentrations (1, 10, 25, 50, 100, 200 and 300 μM) was evaluated against E. coli RP437 to determine whether these small molecules elicit their inhibition effect through a toxic mechanism. […] The effect induced by SHLs at 200 μM, the inhibitory concentration at which maximum biofilm inhibition occurs was interesting to observe.
The toxicity profile of BF8 48 would in turn allow a comparison to the library of SHLs. Parallel growth studies using BF8 48 and vinyl-SHL 3 treated and untreated control cultures in 96-well plates were performed. Inhibitor concentrations used during growth studies ranged from […]-300 μM.
An overnight culture of E. coli RP437 grown in LB media (OD600 of 1.0) containing streptomycin (10 μg/mL) was subsequently sub-cultured to an OD600 of 0.04 (1:100 dilution with LB media). To each well in the solvent resistant polypropylene or polystyrene-based 96-well microtiter plates were added varying concentrations of the synthetic molecules respectively (1, 10, 25, 50, 100, 200 and 300 μM). Further, to each of the wells containing the known concentrations of synthetic molecules was added 200 μL of the sub-cultured bacteria and the contents in each well were gently mixed. Control wells comprised of untreated bacterial culture (four replicates) and the LB media (four replicates). The microtiter plates were then covered and allowed to incubate at 37° C. for 24 hours with shaking at 200 rpm. The OD600 values in each well was measured at 0, 2, 4, 6, 8, 12, 24 h after inoculation using Biotek ELx800 absorbance plate reader using Gen5™ data analysis software. For each synthetic compound, the growth experiments were repeated twice and each of the concentrations was tested over four replicates.

[3] = E. coli RP437, 200 μM, 24 h, crystal violet

SMILES	inhibition of biofilm formation (E. coli RP437 [1]; [3]) [%]	toxicity / growth inhibition of E. coli (in words) (E. coli RP437 [2])	biofilm inhibition (in words) (E. coli RP437 [1]; [3])	biofilm inhibition values used in the ratio 26/57×100 (E. coli RP437 [1]; E. coli RP437, unit not given)	E. coli growth relative to untreated sample (E. coli RP437 [2]; 200 μM, at 4 h, OD600) [%]	toxicity / growth inhibition of E. coli (in words) (E. coli RP437 [2]; listed as Vinyl-SHL 3)
CC1=C(Br)/C(=C/Br)OC1=O [BF8 48, reference compound]	56	marked attenuation of E. coli growth	–	–	–	–
CCCCOc1c(NC2CCCC2)c(=O)c1=O [butoxy-SCPA 46]	42	no inhibition of E. coli growth up to 300 μM	–	–	–	–
C=Cc1c(NC2CCOC2=O)c(=O)c1=O (stereo not drawn) [vinyl-SHL 3]	–	less toxicity compared to BF8 48	greatest inhibition of biofilm	57	77	after 8 h, E. coli RP437 growth reverts back normally
